In US11485740B2, “Inhibitors of TRPC6” (Boehringer Ingelheim International GmbH, priority 2018, dated 2022) one finds IC50 data, which are given here for four compounds.

The target of the assay is T1, human TRPC6 (Homo sapiens, UniProt Q9Y210).
T1 construct: expressed in transfected cells
T1 sequence (Q9Y210 1-931): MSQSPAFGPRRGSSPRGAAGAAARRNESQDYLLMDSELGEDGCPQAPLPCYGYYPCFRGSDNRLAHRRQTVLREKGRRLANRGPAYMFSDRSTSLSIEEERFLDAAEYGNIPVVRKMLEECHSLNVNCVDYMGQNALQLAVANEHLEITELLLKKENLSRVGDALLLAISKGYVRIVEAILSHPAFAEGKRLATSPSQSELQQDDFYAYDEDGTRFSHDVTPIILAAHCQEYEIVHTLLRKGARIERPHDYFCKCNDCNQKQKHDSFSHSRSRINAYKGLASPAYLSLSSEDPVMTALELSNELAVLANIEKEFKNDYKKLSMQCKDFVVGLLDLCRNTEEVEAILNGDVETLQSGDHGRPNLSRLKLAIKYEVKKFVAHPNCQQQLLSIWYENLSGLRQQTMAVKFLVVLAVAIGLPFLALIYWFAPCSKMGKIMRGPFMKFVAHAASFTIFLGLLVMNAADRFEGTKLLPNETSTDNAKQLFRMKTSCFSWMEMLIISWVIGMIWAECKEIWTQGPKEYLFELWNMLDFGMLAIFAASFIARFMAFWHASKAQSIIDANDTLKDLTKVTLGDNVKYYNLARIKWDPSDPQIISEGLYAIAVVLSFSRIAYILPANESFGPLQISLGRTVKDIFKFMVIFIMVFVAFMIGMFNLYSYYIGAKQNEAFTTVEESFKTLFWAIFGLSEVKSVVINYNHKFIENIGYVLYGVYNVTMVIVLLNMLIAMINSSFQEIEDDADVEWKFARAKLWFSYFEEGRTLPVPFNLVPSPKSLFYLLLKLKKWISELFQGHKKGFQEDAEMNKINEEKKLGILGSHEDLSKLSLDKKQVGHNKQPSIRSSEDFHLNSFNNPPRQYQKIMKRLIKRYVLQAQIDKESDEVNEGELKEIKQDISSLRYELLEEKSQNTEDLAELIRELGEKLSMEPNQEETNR
Description: High throughput screening assay: Fluo4/AM calcium fluorescence in HEK293/TREx cells expressing human TRPC6, agonist GSK1702934A (single concentration 10 μM and IC50 curves). It counts as cell-based. Particulars: antagonist effect against human TRPC6, 7 concentrations 20 μM to 0.027 μM, triplicate. The method in brief:
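HEK293/TREx cells stably carrying tetracycline-induced (1 μg/ml) human TRPC6, loaded with Fluo4/AM (0.5 μM, 60 min, RT), pretreated 2 min with compound (10 μM final in screen), then stimulated with GSK1702934A in high-Ca2+ Ringer's (20 mM Ca2+ final). Fluorescence ratio over ~3 min normalized to no-compound and control-blocker wells; IC50 from triplicate curves.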
Take `COc1cc(C(=O)N2CCC(c3ccc(N)nn3)CC2)ccc1-c1ccc(O[C@H](C)C2CC2)nc1` [Compound 81, [4-(6-Amino-pyridazin-3-yl)-piperidin-1-yl]-{4-[6-((R)-1-cyclopropyl-ethoxy)-pyridin-3-yl]-3-methoxy-phenyl}-methanone]: the IC50 (as a rule, the concentration needed to halve the response being measured) amounted to 220 nM.

On to `COc1cc(C(=O)N2CCN(c3cnc(N)cc3OC)C[C@@H]2[C@H](C)O)ncc1-c1ccc(C(F)(F)F)cc1` [Compound 107], for which the IC50 is 210 nM.

With `CCc1ccc(-c2cnc(C(=O)N3CCC(c4ccc(N)nn4)CC3)cc2OC)cn1` [Compound 44, [4-(6-Amino-pyridazin-3-yl)-piperidin-1-yl]-(6′-ethyl-4-methoxy-[3,3′]bipyridinyl-6-yl)-methanone], the IC50 stood at 1700 nM.

`COc1cc(C(=O)N2CCC(c3ccc(N)nn3)CC2)ccc1-c1ccc(OC(C)C)cc1` [Compound 57, [4-(6-Amino-pyridazin-3-yl)-piperidin-1-yl]-(4′-isopropoxy-2-methoxy-biphenyl-4-yl)-methanone]: the IC50 is 320 nM.
